Results from patent US5217986A, “Anti-allergy agent” (Harbor Branch Oceanographic Institution, Inc., priority 1992, dated 1993).

What was measured:
H3 receptor = target: T1, H3 receptor (Cavia porcellus, UniProt Q9JI35); assay: H3 receptor binding assay ([3H]R-α-methylhistamine, guinea pig brain membranes)
T1 construct: The source of the H3 receptors in this experiment was guinea pig brain; from tissue; host or cells: guinea pig brain membranes
Protocol: The source of the H3 receptors in this experiment was guinea pig brain. The animals used weighed 400-600 g. The tissue was homogenized using a Polytron in a solution of 50 mM Tris, pH 7.5. The final concentration of tissue in the homogenization buffer was 10% w/v. The homogenates were centrifuged at 1000× g for 10 minutes in order to remove clumps of tissue and debris. The resulting supermatants were then centrifuged at 50,000× g for 20 minutes in order to sediment the membranes, which were next washed 3 times in homogenization buffer (50,000× g for 20 minutes each). The membranes were frozen and stored at -70° C. until needed.
The compound to be tested was dissolved in DMSO (dimethyl sulfoxide) and then diluted into the binding buffer (50 mM Tris, pH 7.5) such that the final concentration was 2 μg/mL with 0.1% DMSO. Membranes were then added (400 μg of protein) to the reaction tubes. The reaction was started by the addition of 3 nM [^3 H]R-α-methylhistamine (8.8 Ci/mmol) and incubated at 30° C. for 30 minutes. Bound ligand was separated from unbound ligand by filtration, and the amount of radioactive ligand bound to the membranes was quantitated by liquid scintillation spectrometry. The incubation was performed in duplicate and the standard error was less than 10%.

guinea pig ileum = assay: Guinea pig ileum assay (inhibition of Rα-methylhistamine effect on electrical field stimulated contractions)
Protocol: Male guinea pigs (450-500 g) were sacrificed by cervical dislocation. Portions of the ileum (20-40 cm) were removed and placed in Tyrodes solution (NaCl, 8.0; KCl, 0.2; MgCl2.6H2 O, 0.2; CaCl2, 0.13; NaH2 PO4, 0.06; dextrose, 1.0; NaHCO3, 1.0 g/l). The ilea were cut into 2.5 cm segments, mounted between platinum wire coaxial electrodes and placed in water-jacketed organ baths containing 25 ml of the Tyrodes solution. Bath fluid temperature was maintained at 37° C. and aerated with 95% 02-5% CO2. The muscles were suspended from isometric force transducers (Grass FT03C) under 0.3 g resting tension. Contractions were amplified on a Buxco tension monitor and recorded on a Harvard polygraph. […] Once this 80% response was determined it was evoked every 60 seconds throughout the experiment. […]
Rα-methylhistamine inhibits the electrical field stimulated contractions of the guinea pig ileum and was used as the H3 agonist reference standard. H3 agonists were studied for their ability to inhibit the electrical field stimulated contractions and their activity was expressed as a percentage of the maximum Rα-methylhistamine effect. […]
Relative potency for agonists was determined from the pD2 (Furchgott, R. F., The pharmacology of Vascular Smooth Muscle. Pharm. Rev. 7, 183, 1955.) calculations. Relative potency for antagonists was determined from pA2 calculations. […]

T1 sequence (Q9JI35 whole entry): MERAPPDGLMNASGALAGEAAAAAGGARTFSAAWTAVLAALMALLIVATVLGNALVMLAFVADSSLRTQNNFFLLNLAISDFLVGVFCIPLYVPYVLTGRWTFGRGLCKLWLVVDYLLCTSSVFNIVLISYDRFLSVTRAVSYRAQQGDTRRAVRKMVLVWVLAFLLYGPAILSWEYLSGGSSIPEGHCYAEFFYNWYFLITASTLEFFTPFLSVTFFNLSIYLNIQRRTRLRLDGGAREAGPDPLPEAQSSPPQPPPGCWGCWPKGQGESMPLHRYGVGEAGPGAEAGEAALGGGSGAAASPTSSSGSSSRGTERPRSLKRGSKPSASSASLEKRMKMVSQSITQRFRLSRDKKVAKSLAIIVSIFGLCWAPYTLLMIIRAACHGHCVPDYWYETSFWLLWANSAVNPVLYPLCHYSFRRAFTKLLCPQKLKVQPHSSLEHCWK

IC50 (H3 receptor; guinea pig brain membranes, 3 nM [3H]R-α-methylhistamine, 30° C., 30 minutes, pH 7.5): 498 nM
activity in an H3 receptor assay (H3 receptor; no concentration stated): active
Compound: COc1ccc(CC(=NO)C(=O)NCCc2c[nH]cn2)cc1Br [verongamine]
Guinea Pig Ileum (guinea pig ileum; @ 1 μg/mL, 1 μM chlorpheniramine present, 37° C.): antagonist
activity on guinea pig ileum (guinea pig ileum; no concentration stated): H3 antagonist
